Where a SMILES comes first, the peptide text is derived from it.

What all share (format): cell-based
Data set [1] relates to normal human aortic vessel smooth muscle cells (VSMC). Briefly: Influence on VSMC growth by Ang II stimulation (WST-8). As to conditions: 48 hours. As for the experimental part:
(§1) As to cells, normal human aortic vessel smooth muscle cells (VSMC; Cyro AOSMC (trade name) manufactured by Sanko Junyaku Co.) were used while, as to VY, valyl-tyrosine which was chemically synthesized was used and a calcium channel inhibiting action by VY was confirmed.
When Ang II (angiotensin II) is added to an incubated liquid of VSMC, cell growth thereof is promoted. It has been known to be due to the fact that Ang II is bonded to an AT1 receptor existing on the surface of VSMC, the bonding signal flows in the cells and, as a result, calcium channel opens and calcium ion flows into the cells. Such a mechanism was utilized to conduct the following experiment.
VSMC was pre-incubated for 24 hours on a serum-free medium on a 96-well plate and three kinds of samples—a control to which no additive was added, a sample to which only Ang II was added in a concentration of 1 μM (Ang II (+)) and a sample to which Ang II and VY were added in concentrations of 1 μM and 1 mM, respectively (Ang II(+)VY(+))—were incubated for 48 hours. Then 10 μM of WST-8 was added thereto and amount of water-soluble formazan resulted by color reaction at 37° C. for 3 hours in a CO2 incubator was measured from absorbance at 450 nm whereupon cell growth was measured form the synthesized amount of DNA. The result which was made into a graph is FIG. 14 (effect of VY on Ang II stimulation).
Further, cell growth when concentration of VY added by the same method was made 0 μM, 1 μM, 10 μM, 100 μM and 1 mM was measured. That is, VSMC was pre-incubated on a serum-free medium for 24 hours on a 96-well plate and six kinds of samples—a control where nothing was added and five samples where Ang II was added in a concentration of 1 μM and VY was further added in concentrations 0 μM, 1 μM, 10 μM, 100 μM and 1 mM—were incubated for 48 hours. Then 10 μM WST-8 was added thereto and amount of water-soluble formazan produced by color reaction at 37° C. for 3 hours in a CO2 incubator was determined from absorbance at 450 nm whereupon cell growth was measured from the synthesized amount of DNA. The result which was made into a graph is FIG. 15 (dependency of VY concentration to VSMC growth by Ang II stimulation).
VSMC was pre-incubated in a serum-free-medium for 24 hours on a 96-well plate, then 1 μM of captopril which is an ACE inhibitor was added thereto and incubation was conducted for 48 hours. Then 10 μM WST-8 was added thereto and amount of water-soluble formazan produced by color reaction for 3 hours was determined from absorbance at 450 nm whereupon cell growth was measured from synthesized amount of DNA. The result which was made into a graph is FIG. 16 (influence of ACE inhibitor on Ang II stimulation).

The test system is the same in data set [2]. Briefly: Influence on calcium channel agonist (Bay K 8644) stimulation of VSMC growth (WST-8). Particulars: 48 hours. How it is done:
Inflow of calcium ion which is downstream of Ang II stimulation showing a cell growth promoting action was investigated. […] Then 10 μM of WST-8 was added thereto and amount of water-soluble formazan produced by color reaction for 3 hours at 37° C. in a CO2 incubator was determined by absorbance at 450 nm whereupon cell growth was measured from the synthesized amount of DNA.
Then 10 μM of WST-8 was added thereto and amount of water-soluble formazan produced by color reaction for 3 hours at 37° C. in a CO2 incubator was determined by absorbance at 450 nm whereby cell growth was measured from synthesized amount of DNA.

The test system is the same in data set [3]. As to the kind of experiment: VY toxicity test on VSMC (WST-8). As to conditions: 0 mM or 1 mM VY; 48 hours; serum-free; WST-8 absorbance at 450 nm; FIG. 13. How it is done: as §1
In order to check the toxicity of VY, VSMC was pre-incubated for 24 hours on a serum-free medium on a 96-well plate, 0 mM or 1 mM of VY was added thereto and incubation was conducted for 48 hours. To this was added a solution containing 10 μM of WST-8 (2-(2-methoxy-4-nitrophenyl)-3-(4-nitrophenyl)-5-(2,4-disulfophenyl)-2H-tetrazolium (Cell Counting Kit-8; manufactured by Dojin Kagaku CO.)), color reaction was conducted in a CO2 incubator at 37° C. for 3 hours and the amount of the resulting water-soluble formazan was determined by absorbance at 450 nm where cell growth was measured from the synthesized amount of DNA. The result which was made into a graph is FIG. 13 (VY toxicity test). As a result, it was noted that there was no difference between their cell growths and that VY is non-toxic.

Data set [4] shares this test system. Briefly: Influence of VY on VSMC growth in the presence of 5% FBS (Trypan Blue living cell count). Particulars: VY 0, 50 and 100 μM, 5 v/v % FBS medium, 5 days at 37° C., FIG. 12. As for the experimental part: as §1
VSMC (1×10^5 cell/ml) was pre-incubated for 24 hours in a serum-free medium and transferred to a medium containing 5 v/v % of FBS (fetal bovine serum), 1 w/v % of hEGF (human epidermal growth factor) and 1 w/v % of hEGF-β, then VY was added thereto so as to make its concentrations 0, 50 and 100 μM and incubation of the resulting mixtures was conducted for 5 days at 37° C. in a CO2 incubator. This was stained with Trypan Blue and living cells were counted by a blood corpuscle counter. The result which is made into a graph is FIG. 12 (effect of addition of VY in the presence of 5% FBS).

The test system is the same in data set [5]. As to the kind of experiment: Influence of VY on Ang II receptor: VSMC growth with Ang II and saralasin (WST-8). As to conditions: 48 hours, FIG. 17. As for the experimental part: as §1
Influence of VY on Ang II receptor AT1 existing on the surface of VSMC was investigated. That is, VSMC was pre-incubated in a serum-free medium for 24 hours on a 96-well plate and incubation was conducted for 48 hours after 1 μM of Ang II was added, 10 μM of saralasin which is an Ang II antagonist was added, each 1 μM of Ang II and saralasin were added or each 1 μM of Ang II and saralasin and 1 mM of VY were added. Then 10 μM of WST-8 was added thereto and amount of water-soluble formazan formed by color reaction for 3 hours at 37° C. in a CO2 incubator was determined by absorbance at 450 nm whereby cell growth was measured from the synthesized amount of DNA. The result which was made into a graph is FIG. 17 (effect of VY and saralasin (Ang II antagonist) on Ang II stimulation).

Turning to `C[C@H](CS)C(=O)N1CCC[C@H]1C(=O)O` [captopril, reference compound], in data set [1] (captopril 1 μM, FIG. 16), the “influence of ACE inhibitor on Ang II stimulation (cell growth)” value was “did not show a suppressive action to Ang II stimulation”.
Take `CC(C)[C@H](N)C(=O)N[C@@H](Cc1ccc(O)cc1)C(=O)O` [VY, valyl-tyrosine] (H-Val-Tyr-OH): the “cell growth under Bay K 8644 stimulation” value in data set [2] (1 μM of Bay K 8644 and 1 mM of VY, FIG. 18) was “suppressed cell growth promoting activity as same as in the case of addition of verapamil”. Moreover, the “dependency on concentration of VY to Bay K 8644 stimulation (cell growth)” value in data set [2] (1 μM of Bay K 8644 with 0, 10 μM, 100 μM or 1 mM of VY, FIG. 19) is “suppressive effect to VSMC growth by Bay K 8644 stimulation in a concentration-dependent manner”. For the same molecule, the “toxicity (cell growth)” value in data set [3] was “non-toxic”. For the same molecule, the “cell growth under Ang II stimulation” value in data set [1] (Ang II 1 μM and VY 1 mM, FIG. 14) is “cell growth was not promoted”. Moreover, in data set [1] (Ang II 1 μM, VY 0 μM, 1 μM, 10 μM, 100 μM and 1 mM, FIG. 15), the “dependency of VY concentration to VSMC growth by Ang II stimulation” value is listed as “suppressive effect to the growth of VSMC by Ang II stimulation in a concentration-depending manner”. Moreover, the “cell growth (living cells counted)” value in data set [4] was “cell growth was suppressed in proportion to the added VY concentration”. Moreover, the cell growth result in data set [5] (each 1 μM of Ang II and saralasin and 1 mM of VY) is listed as “no growth promoting effect was noted”.
Consider “angiotensin II (DRVYIHPF; Angiotensin-2; UniProt P01019 25-32, looked up) [Ang II, angiotensin II, promotes VSMC growth via AT1 receptor, reference compound]”, for which, in data set [1] (Ang II alone 1 μM, FIG. 14), the cell growth result is given as “growth was strongly promoted”.
For the molecule `COc1ccc(CCN(C)CCCC(C#N)(c2ccc(OC)c(OC)c2)C(C)C)cc1OC` (stereo not shown) [verapamil, reference compound], in data set [2] (each 1 μM of Bay K 8644 and verapamil, FIG. 18), the “cell growth under Bay K 8644 stimulation” value is reported as “suppressed the cell growth promoting activity”.
`COC(=O)C1=C(C)NC(C)=C([N+](=O)[O-])C1c1ccccc1C(F)(F)F` (stereo not shown) [Bay K 8644, reference compound]: the cell growth entry in data set [2] (Bay K 8644 alone 1 μM, FIG. 18) was “cell growth was promoted”.
As for `CNCC(=O)N[C@@H](CCCN=C(N)N)C(=O)N[C@H](C(=O)N[C@@H](Cc1ccc(O)cc1)C(=O)N[C@H](C(=O)N[C@@H](Cc1cnc[nH]1)C(=O)N1CCC[C@H]1C(=O)N[C@@H](C)C(=O)O)C(C)C)C(C)C` [saralasin], the cell growth entry in data set [5] (each 1 μM of Ang II and saralasin) is “the growth promotion effect was weak as compared with the case of sole use of saralasin”; in data set [5] (saralasin alone, 10 μM) it was “cell growth was promoted although that was not so significant as in the case of addition of Ang II”.

(Values after US20060040872A1, “Calcium channel inhibitor” (SENMI EKISU CO., LTD, priority 2004, published 2006).)
